Source: publication PMC11946789, “Two Amino Acid Substitutions Improve the Pharmacological Profile of the Snake Venom Peptide Mambalgin” (Toxins, 2025)
Bridges are numbered along the chain shown (N, C = ends). Where no end group is shown, it is not given here.

What was measured:
[1] = test system: heteromeric rat ASIC1a/3 channels (rASIC1a/3); assay: TEVC recordings, heteromeric rASIC1a/3; assay type: cell-based; conditions: for inhibition of rASIC1a/3: 100 nM, pH 5.5 stimulus, conditioning pH 7.4, % of control currents, n = 5, p < 0.05 Mamb-AL vs Mamb, unpaired t-test
Description: Figure 4 The inhibitory effect of Mamb-AL on other ASIC1-containing channels exceeds that of Mamb. (A,C) Representative current traces showing the effects of various concentrations of Mamb (left panels) and Mamb-AL (right panels) on homomeric rat ASIC1b (rASIC1b) (A) and heteromeric rat ASIC1a/3 (rASIC1a/3) channels (C). Currents were evoked by a pH 5.5 stimulus following a conditioning pH of 7.4, with peptides applied for 30 s prior to the pH stimulus. (B) Dose–response curves for the inhibitory effects of Mamb and Mamb-AL on rASIC1b. Each data point represents measurements from 5 to 7 cells. (D) Bar graph quantifying the inhibitory effects of Mamb and Mamb-AL on rASIC1a/3, shown as a percentage of the corresponding control currents (n = 5). Data are presented as mean ± SEM; * p< 0.05, unpaired t-test. […] Data are shown as mean ± SEM; ns indicates no significant difference vs. control (dotted horizontal line), paired t-test.
Female X.laevis frogs were anesthetized with 0.17% ethyl 3-amino-benzoate methane sulfonate (MS222). A small ovarian section was surgically removed via an abdominal incision and placed in ND96 medium (96 mM NaCl, 2 mM KCl, 1.8 mM CaCl2, 1 mM MgCl2, and 5 mM HEPES, pH 7.4, adjusted with NaOH). […] Each animal underwent surgeries at intervals of no less than three months. Connective tissue and follicular sheaths were removed by incubating ovarian tissue in calcium-free ND96 medium containing collagenase (1 mg/mL) for 2 h at 21 °C. Healthy, mature stage IV and V oocytes were selected and stored in ND96 medium. […]
Whole-cell ASIC currents were measured using the two-electrode voltage clamp (TEVC) method with a GeneClamp 500 amplifier (Axon Instruments, Union City, NJ, USA). […]
Electrophysiological and behavioral data were analyzed using OriginPro 8.6.0 (OriginLab, Washington, DC, USA). […] Statistical significance between the Mamb and Mamb-AL groups was determined using an unpaired t-test. […]

[2] = test system: acetic acid-induced writhes; assay: Acetic acid-induced writhing pain test; assay type: in vivo, male ICR mice; conditions: for decrease in number of writhes: 90 min before i.p. 0.6% acetic acid, 15 min, n = 8, vs saline control (41 ± 8 writhes); for number of writhes (result in words): 0.01 and 0.1 mg/kg, 90 min prior to testing
Description: ASIC channels play a critical role in the perception of acid-induced pain [8, 38]. As effective inhibitors of ASIC1-containing channels, Mamb and Mamb-AL could serve as potential therapeutics for this type of pathology. To evaluate this hypothesis, we employed the acetic acid-induced writhing test as an in vivo model of acute pain. In this model, intraperitoneal administration of 0.6% acetic acid provokes a stereotypical behavior in mice characterized by abdominal contractions (acetic acid-induced writhes).
Figure 5 Analgesic effect of peptides Mamb and Mamb-AL in an acute pain model. Peptides were administered intramuscularly 90 min before testing. Their efficacy was assessed using the acetic acid-induced writhing test, where the number of writhes was counted after intraperitoneal administration of 0.6% acetic acid. Results are presented as mean ± SD (n = 8 for each group). Statistical analysis was performed using one-way ANOVA followed by Dunnett’s post hoc test. * p< 0.05, ** p< 0.01, *** p< 0.005, **** p< 0.001 indicate significant differences compared with the control group, and ns indicates no significant difference.
The number of writhes in the control group treated with saline was 41 ± 8. Administration of wild-type peptide at doses of 0.01 and 0.1 mg/kg decreased the number of writhes by approximately 29% and 27%, respectively.
Adult (8–10 weeks) male ICR mice (25–30 g, Animal Breeding Facility Branch of the Shemyakin–Ovchinnikov Institute of Bioorganic Chemistry, Russian Academy of Sciences, Pushchino, Russia) were housed in Type 3 standard polycarbonate cages (820 cm^2) with LIGNOCEL BK 8/15 bedding (JRS, Rosenberg, Germany) under controlled conditions (23 ± 2 °C, 12h light–dark cycle) with ad libitum access to food and water. Test substances were dissolved in saline and administered intramuscularly 90 min before testing. The visceral pain assay was performed as described by. Distinct groups (n = 8 for each group) of mice were administered with 0.6% acetic acid in saline intraperitoneally (i.p.). Writhing behavior was recorded for 15 min after the mice were placed in transparent glass cylinders. A blinded observer assessed the responses. No formal power analysis was performed prior to the experiments, as the effect size and variability of the peptide treatment were unknown. However, because the initial results were highly significant, no additional animals were used. No animals were excluded from the analysis. Peptides (Mamb and Mamb-AL) were compared with a saline control group using analysis of variance (ANOVA) with post hoc Dunnett’s test. Data are presented as mean ± standard deviation (SD).

Sequence	inhibition of rASIC1a/3 [1]	increase in inhibition of heteromeric ASIC1a/3 channels ([1]; compared with Mamb)	decrease in number of writhes ([2]; 0.01 mg/kg intramuscular)	decrease in number of writhes ([2]; 0.1 mg/kg intramuscular)	analgesic effect relative to wild-type Mamb ([2]; 0.01 and 0.1 mg/kg intramuscular)	number of writhes (result in words) [2]
LKCYQHGKVVTCHRDAKFCYHNTGLPFRNLKLILQGCSSSCSETENNKCCSTDRCNK (disulfide 3-19, 12-37, 41-49, 50-55 (inferred)) [Mamb-AL]	32%	two-fold increase	~ 41%	~ 34%	trend toward a stronger analgesic effect than the wild-type Mamb	significantly reduced the number of writhes
LKCFQHGKVVTCHRDMKFCYHNTGMPFRNLKLILQGCSSSCSETENNKCCSTDRCNK (disulfide 3-19, 12-37, 41-49, 50-55 (inferred)) [Mamb]	13%	–	approximately 29%	~27%	–	significantly reduced the number of writhes
